Values after ≈ are worked out from the molar mass of the structure shown.
Experiments:
Saccharomyces cerevisiae [1] = assay: DNA damaging activity against RS167N rad6 DNA repair gene deficient Saccharomyces cerevisiae mutant assessed as drug level required to produce 12 mm zone of inhibition after 48 hrs; assay type: functional
Saccharomyces cerevisiae [2] = assay: DNA damaging activity against RS188N rad DNA repair gene expressing Saccharomyces cerevisiae assessed as drug level required to produce 12 mm zone of inhibition after 48 hrs; assay type: functional
Saccharomyces cerevisiae [3] = assay: DNA damaging activity against RS321 DNA repair gene deficient Saccharomyces cerevisiae mutant assessed as drug level required to produce 12 mm zone of inhibition after 48 hrs; assay type: functional
Saccharomyces cerevisiae [4] = assay: DNA damaging activity against RS322YK rad52Y DNA repair gene deficient Saccharomyces cerevisiae mutant assessed as drug level required to produce 12 mm zone of inhibition after 48 hrs; assay type: functional
[5] = Cytotoxicity against CHOAUXB1 cells; assay type: cell-based; conditions: Cricetulus griseus

Compound	IC12 (Saccharomyces cerevisiae [1]) [µg/mL]	IC12 (Saccharomyces cerevisiae [2]) [µg/mL]	IC12 (Saccharomyces cerevisiae [3]) [µg/mL]	IC12 (Saccharomyces cerevisiae [4]) [µg/mL]	IC50 [5] [µg/mL]
CC(C)=CCC/C(C)=C/CN(C)C(=N)N(C)C/C=C(\C)CCC=C(C)C [NITENSIDINE C]	> 8000	> 8000	13	> 8000	20 (≈ 55.6 µM)
CC(C)=CCC/C(C)=C/CN(C/C=C(\C)CCC=C(C)C)C(=N)N [NITENSIDINE B]	> 8000	> 1000	10	> 500	9.3 (≈ 28.1 µM)
CC(C)=CCNC(=N)NCC=C(C)C [PTEROGYNIDINE]	> 1000	> 1000	8.5	> 1000	–
CC(C)=CCC/C(C)=C/CNC(=N)NC/C=C(\C)CCC=C(C)C [NITENSIDINE A]	> 8000	> 1000	6	> 1000	13 (≈ 39.2 µM)
CC[C@@]1(O)C(=O)OCc2c1cc1n(c2=O)Cc2cc3ccccc3nc2-1 [CAMPTOTHECIN]	8.7	–	–	0.6	0.016 (≈ 0.0459 µM)
COC1=C(N)C(=O)c2nc(-c3nc(C(=O)O)c(C)c(-c4ccc(OC)c(OC)c4O)c3N)ccc2C1=O [STREPTONIGRIN]	2.4	–	–	0.4	–

— ChEMBL document CHEMBL1150088, “Bioactive Guanidine Alkaloids from Pterogyne nitens” (J Nat Prod, 1995)
